Values joined by “and” are separate entries in the source; they are usually repeats but may differ in a detail not shown here. Identical values can stand only once.
Legend:
[1] = molar heat capacity at constant volume; xn = mol fraction of the nth substance listed; details: Fluid (supercritical or subcritical phases), Vacuum adiabatic calorimetry
[2] = xn = mol fraction of the nth substance listed; details: Fluid (supercritical or subcritical phases), isochoric method

CC(C)C [2-methylpropane] + CCC
Details | mass density, [2] [kg/m3] | molar heat capacity at constant volume, [1]
270.15 K, 4579 kPa, x2 = 0.498 | 566.8 | 82.79 J/K/mol
275.15 K, 8198 kPa, x2 = 0.498 | 566.3 | 81.61 J/K/mol
280.15 K, 11759 kPa, x2 = 0.498 | 565.9 | 82.79 J/K/mol
285.15 K, 15256 kPa, x2 = 0.498 | 565.5 | 84.27 J/K/mol
290.15 K, 18687 kPa, x2 = 0.498 | 565.1 | 85.14 J/K/mol
295.15 K, 22038 kPa, x2 = 0.498 | 564.8 | 85.81 J/K/mol
300.15 K, 25302 kPa, x2 = 0.498 | 564.5 | 87.7 J/K/mol
305.15 K, 28471 kPa, x2 = 0.498 | 564.2 | 89.64 J/K/mol
315.15 K, 9748 kPa, x2 = 0.498 | 524.3 | 89.39 J/K/mol
320.15 K, 12415 kPa, x2 = 0.498 | 523.9 | 91.23 J/K/mol
325.15 K, 15069 kPa, x2 = 0.498 | 523.6 | 92.35 J/K/mol
330.15 K, 17709 kPa, x2 = 0.498 | 523.3 | 91.89 J/K/mol
335.15 K, 20336 kPa, x2 = 0.498 | 523 | 93.07 J/K/mol
340.15 K, 22950 kPa, x2 = 0.498 | 522.8 | 92.66 J/K/mol
345.15 K, 25550 kPa, x2 = 0.498 | 522.5 | 92.4 J/K/mol
350.15 K, 7962 kPa, x2 = 0.498 | 471.7 | 93.89 J/K/mol
350.15 K, 28136 kPa, x2 = 0.498 | 522.3 | 93.22 J/K/mol
355.15 K, 9814 kPa, x2 = 0.498 | 471.4 | 93.73 J/K/mol
360.15 K, 11663 kPa, x2 = 0.498 | 471.2 | 93.73 J/K/mol
365.15 K, 13509 kPa, x2 = 0.498 | 470.9 | 93.22 J/K/mol
370.15 K, 15351 kPa, x2 = 0.498 | 470.7 | 94.71 J/K/mol
375.15 K, 17187 kPa, x2 = 0.498 | 470.5 | 94.19 J/K/mol
380.15 K, 19017 kPa, x2 = 0.498 | 470.2 | 95.06 J/K/mol
380.15 K, 20994 kPa, x2 = 0.756 | 458.6 | 88.38 J/K/mol
385.15 K, 4713 kPa, x2 = 0.756 | 279.9 | 150.35 J/K/mol
385.15 K, 22824 kPa, x2 = 0.756 | 458.4 | 90.71 J/K/mol
390.15 K, 5229 kPa, x2 = 0.756 | 279.8 | 127.92 J/K/mol
390.15 K, 22647 kPa, x2 = 0.498 | 469.8 | 97.67 J/K/mol
395.15 K, 4489 kPa, x2 = 0.498 | 274.1 | 183.94 J/K/mol
395.15 K, 5756 kPa, x2 = 0.756 | 279.7 | 116.61 J/K/mol
400.15 K, 4949 kPa, x2 = 0.498 | 274 | 160.01 J/K/mol
400.15 K, 6290 kPa, x2 = 0.756 | 279.6 | 105.82 J/K/mol
405.15 K, 5419 kPa, x2 = 0.498 | 273.9 | 144.56 J/K/mol
405.15 K, 6830 kPa, x2 = 0.756 | 279.6 | 101.36 J/K/mol
410.15 K, 5896 kPa, x2 = 0.498 | 273.8 | 131.68 J/K/mol
410.15 K, 7375 kPa, x2 = 0.756 | 279.5 | 96.37 J/K/mol
415.15 K, 4254 kPa, x2 = 0 | 273.8 | 230.8 J/K/mol and 222.08 J/K/mol
415.15 K, 6379 kPa, x2 = 0.498 | 273.7 | 124.31 J/K/mol
415.15 K, 7922 kPa, x2 = 0.756 | 279.4 | 93.23 J/K/mol
420.15 K, 4664 kPa, x2 = 0 | 273.7 | 202.67 J/K/mol
420.15 K, 4665 kPa, x2 = 0 | 273.8 | 202.96 J/K/mol
420.15 K, 6865 kPa, x2 = 0.498 | 273.6 | 115.11 J/K/mol
420.15 K, 8472 kPa, x2 = 0.756 | 279.3 | 90.85 J/K/mol
425.15 K, 5082 kPa, x2 = 0 | 273.7 | 186.05 J/K/mol
425.15 K, 5083 kPa, x2 = 0 | 273.7 | 187.1 J/K/mol
425.15 K, 7354 kPa, x2 = 0.498 | 273.6 | 109.18 J/K/mol

CCC [propane] + CC(C)C
x1 = 1
Details | mass density, [2] [kg/m3] | molar heat capacity at constant volume, [1] [J/K/mol]
270.15 K, 4427 kPa | 539.9 | 71.74
275.15 K, 7953 kPa | 539.6 | 71.26
280.15 K, 11458 kPa | 539.3 | 71.3
285.15 K, 14939 kPa | 539 | 72.63
290.15 K, 18398 kPa | 538.7 | 73.46
295.15 K, 21836 kPa | 538.4 | 74.57
300.15 K, 25251 kPa | 538.1 | 74.61
305.15 K, 28640 kPa | 537.8 | 74.35
310.15 K, 6561 kPa | 490.3 | 74.57
315.15 K, 9049 kPa | 490.1 | 75.23
320.15 K, 11532 kPa | 489.8 | 76.15
325.15 K, 3660 kPa | 454.8 | 77.96
325.15 K, 14008 kPa | 489.6 | 76.37
330.15 K, 5594 kPa | 454.6 | 78.75
330.15 K, 16475 kPa | 489.3 | 76.64
335.15 K, 7530 kPa | 454.3 | 78.31
335.15 K, 18934 kPa | 489.1 | 76.9
340.15 K, 9468 kPa | 454.1 | 77.7
340.15 K, 21386 kPa | 488.9 | 77.21
345.15 K, 11404 kPa | 453.9 | 77.26
345.15 K, 23827 kPa | 488.6 | 76.33
350.15 K, 13339 kPa | 453.7 | 79.46
350.15 K, 26253 kPa | 488.4 | 77.52
355.15 K, 15273 kPa | 453.5 | 77.39
355.15 K, 28668 kPa | 488.2 | 77.43
360.15 K, 17203 kPa | 453.3 | 77.74
365.15 K, 19126 kPa | 453.1 | 78.62
370.15 K, 21044 kPa | 452.9 | 79.15
375.15 K, 5095 kPa | 301.1 | 98.6
380.15 K, 5744 kPa | 301 | 93.04
385.15 K, 6404 kPa | 300.9 | 89.6
390.15 K, 7072 kPa | 300.8 | 86.07
395.15 K, 7746 kPa | 300.7 | 84.84
400.15 K, 8425 kPa | 300.6 | 80.43
405.15 K, 9109 kPa | 300.5 | 78.84
410.15 K, 9795 kPa | 300.4 | 79.99
420.15 K, 11176 kPa | 300.2 | 79.81
425.15 K, 11869 kPa | 300.1 | 81.75

Source: the NIST ThermoML archive (doi:10.1007/s10765-005-8592-5)
